# Assays:
# Format in all cases: cell-based
# [1] = biological target: T1, repeat D of type III FN like of human Tenascin (TN) (Homo sapiens, UniProt P24821); test: Binding specificity of labelled antibody by immunohystochemistry on human fibroblasts (GM6114); conditions: shown by immunohystochemistry experiments
# T1 construct: determined by immunohystochemistry on human fibroblasts (GM6114); endogenous in cells; host or cells: human fibroblasts (GM6114)
# From the text: Monoclonal Antibody α-D specific for the repeat D of type III FN like of human Tenascin (TN) (Balza et al. FEBS, 332,39 1993) has been labelled by using the compound of Ex. 4.
# The labelling procedure has been carried out with the monoclonal bound to the Sepharose 4b immobilised antigen, represented from the recombinant TN containing repeats B,C,D type III FN-like.
# [2] = test system: human fibroblasts; test: Lack of non specific toxicity on human fibroblasts, with or without red light; conditions: DMEM 10% FCS, up to 40 μM
# Method: The lack of non specific toxicity has been assessed by using human fibroblasts cultured for six days. Aliquots of the compound according to Ex. 4 at various concentrations have been added to cells in DMEM 10% FCS. After treatment the cell were irradiated for 10 min with red light (Intralux 4000 equipped with filter BP700/100Chroma Technology Corp.). In a parallel experiment cells were treated with the same amounts of compound of Ex. 4, however no light was provided.
# [3] = test system: C. albicans; test: Photoinactivation of C. albicans (CFU vs. concentration, FIG. 1)
# From the text: FIG. 1 represents the variation of the colony forming units (CFU) of C. albicans vs. the concentration (μM) of the compounds according to Examples 7 and 8,indicated in the FIGURE as MRLP 090 and MRLP 091 respectively.
# The following example refer to the activity against C. albicans.
# T1 sequence (P24821 23-2201): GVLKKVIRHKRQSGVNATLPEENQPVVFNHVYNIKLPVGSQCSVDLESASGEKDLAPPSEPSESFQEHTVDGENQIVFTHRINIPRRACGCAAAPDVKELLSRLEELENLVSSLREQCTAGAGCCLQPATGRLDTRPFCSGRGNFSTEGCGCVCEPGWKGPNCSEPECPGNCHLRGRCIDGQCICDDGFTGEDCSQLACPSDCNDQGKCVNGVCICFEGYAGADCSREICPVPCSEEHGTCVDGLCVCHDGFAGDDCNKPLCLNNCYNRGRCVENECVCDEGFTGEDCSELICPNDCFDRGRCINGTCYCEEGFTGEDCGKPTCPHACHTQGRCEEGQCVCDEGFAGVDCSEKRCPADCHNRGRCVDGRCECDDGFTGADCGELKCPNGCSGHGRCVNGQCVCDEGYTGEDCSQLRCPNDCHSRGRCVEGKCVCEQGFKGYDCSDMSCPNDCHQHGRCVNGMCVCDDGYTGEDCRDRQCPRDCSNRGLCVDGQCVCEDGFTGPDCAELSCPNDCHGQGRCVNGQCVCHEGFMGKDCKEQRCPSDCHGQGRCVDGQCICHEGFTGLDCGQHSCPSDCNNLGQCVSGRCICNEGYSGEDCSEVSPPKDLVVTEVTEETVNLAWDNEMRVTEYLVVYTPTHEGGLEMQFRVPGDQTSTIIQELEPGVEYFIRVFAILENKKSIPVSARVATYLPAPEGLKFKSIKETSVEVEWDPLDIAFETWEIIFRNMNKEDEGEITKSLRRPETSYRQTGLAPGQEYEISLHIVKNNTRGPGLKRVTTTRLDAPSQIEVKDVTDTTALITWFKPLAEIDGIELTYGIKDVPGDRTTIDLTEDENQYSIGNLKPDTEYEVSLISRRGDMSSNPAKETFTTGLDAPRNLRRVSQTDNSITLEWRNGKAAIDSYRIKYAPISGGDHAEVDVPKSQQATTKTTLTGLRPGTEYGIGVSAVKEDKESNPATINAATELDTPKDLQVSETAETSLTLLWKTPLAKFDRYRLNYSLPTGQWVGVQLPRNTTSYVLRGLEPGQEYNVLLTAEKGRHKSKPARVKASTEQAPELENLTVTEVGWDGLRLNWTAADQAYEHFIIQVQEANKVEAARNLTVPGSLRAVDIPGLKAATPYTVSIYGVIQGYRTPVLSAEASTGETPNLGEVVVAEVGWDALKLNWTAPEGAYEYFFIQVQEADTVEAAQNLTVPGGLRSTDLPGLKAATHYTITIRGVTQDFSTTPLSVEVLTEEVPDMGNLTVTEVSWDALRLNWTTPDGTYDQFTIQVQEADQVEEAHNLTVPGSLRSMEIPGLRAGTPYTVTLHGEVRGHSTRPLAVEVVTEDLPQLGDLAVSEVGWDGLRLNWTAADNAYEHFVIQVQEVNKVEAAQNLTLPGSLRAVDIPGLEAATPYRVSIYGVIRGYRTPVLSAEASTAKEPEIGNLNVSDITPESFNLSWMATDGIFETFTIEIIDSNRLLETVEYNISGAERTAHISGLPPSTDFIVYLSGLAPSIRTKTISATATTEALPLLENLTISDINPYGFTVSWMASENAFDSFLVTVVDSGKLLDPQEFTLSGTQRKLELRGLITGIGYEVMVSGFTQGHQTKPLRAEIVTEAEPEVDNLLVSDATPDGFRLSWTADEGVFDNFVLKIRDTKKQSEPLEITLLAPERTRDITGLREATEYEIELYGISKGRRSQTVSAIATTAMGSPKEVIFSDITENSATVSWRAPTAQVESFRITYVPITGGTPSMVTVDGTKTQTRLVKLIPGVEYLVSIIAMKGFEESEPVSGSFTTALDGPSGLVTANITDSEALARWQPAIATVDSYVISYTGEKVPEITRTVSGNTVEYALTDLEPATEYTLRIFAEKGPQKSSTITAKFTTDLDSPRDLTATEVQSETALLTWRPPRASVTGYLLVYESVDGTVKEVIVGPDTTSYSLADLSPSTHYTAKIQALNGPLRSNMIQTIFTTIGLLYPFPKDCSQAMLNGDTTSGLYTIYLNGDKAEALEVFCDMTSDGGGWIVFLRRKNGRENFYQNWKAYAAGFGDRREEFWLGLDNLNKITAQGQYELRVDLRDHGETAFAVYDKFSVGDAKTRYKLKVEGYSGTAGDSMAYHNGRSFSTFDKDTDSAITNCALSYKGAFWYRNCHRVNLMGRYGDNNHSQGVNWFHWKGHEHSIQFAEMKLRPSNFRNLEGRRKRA
Substance,aggregation or protein denaturation of the antibody on labelling [1],mortality or morphology in comparison to not treated-not irradiated cells ([2]; irradiated 10 min with red light),mortality or morphology in comparison to not treated-not irradiated cells ([2]; no light provided),"photoinactivation of C. albicans (variation of colony forming units vs. concentration, μM) [3]"
"2-[(4-hydroxycarbonyl)phenoxy]-1(4),8(11),15(18),22(25)-tri[2 -(morfolin-1-yl) ethoxy] zinc(II)phthalocyanine [Example 4]",does not cause aggregation to occur or protein denaturation,No differences in mortality or morphology,No differences in mortality or morphology,–
"2-[(4-hydroxycarbonyl)phenoxy]-9(10),16(17),23(24)-tri[3-(trimethylammonium) phenoxy]zinc(II)phthalocyanine triiodide [Example 7]",–,–,–,photoinactivation
"2-[(4-hydroxycarbonyl)phenoxy]-8(11),15(18),22(25)-tri[3-(trimethylammonium) phenoxy]zinc(II) phthalocyanine triiodide [Example 8]",–,–,–,photoinactivation

# Source: patent US7153841B2, “Metal substituted non-centrosimmetrical phthalocyanine analogues, their preparation and use in photodynamic therapy and in vivo diagnostic” (L. Molteni & C. Dei Fratelli Alitti Societa Di Esercizio …, priority 2001, dated 2006)
